In brackets after ≈: the same amount, converted by molar mass.

Holding throughout (format): functional
For assay [1], the system named is Escherichia coli. Description: Antibacterial activity against Escherichia coli BL21(DE3) expressing Pseudomonas aeruginosa APH(3')-2b.
Assay [2] deals with Escherichia coli. As to the kind of experiment: Antibacterial activity against Escherichia coli BL21(DE3).
The next assay deals with Pseudomonas aeruginosa. Description: Antibacterial activity against Pseudomonas aeruginosa ATCC 27853.

As to `NCC[C@H](O)C(=O)N[C@@H]1C[C@H](N)[C@@H](O[C@H]2O[C@H](CN)[C@@H](O)[C@H](O)[C@H]2O)[C@H](O)[C@H]1O[C@H]1O[C@H](CO)[C@@H](O)[C@H](N)[C@H]1O` [AMIKACIN], the MIC (usually the least concentration at which growth counts as inhibited) in the assay on Escherichia coli [1] is 12 µg/mL (≈ 20.5 µM); in the assay with Escherichia coli [2] it was 12 µg/mL (≈ 20.5 µM); against Pseudomonas aeruginosa it was 3 µg/mL (≈ 5.12 µM).
Turning to `NC[C@@H]1O[C@H](O[C@H]2[C@@H](O)[C@H](O[C@@H]3[C@@H](O)[C@H](N)C[C@H](N)[C@H]3O[C@H]3O[C@H](CN)[C@@H](O)[C@H](O)[C@H]3N)O[C@@H]2CO)[C@H](N)[C@@H](O)[C@@H]1O` [FRAMYCETIN], the figures for the MIC in the assay on Escherichia coli [1], in the assay on Escherichia coli [2] and in the assay with Pseudomonas aeruginosa were 96 µg/mL (≈ 156 µM), 12 µg/mL (≈ 19.5 µM) and 128 µg/mL (≈ 208 µM), respectively.
The matching figures for `NC[C@@H]1O[C@@H](O[C@H]2[C@H](O)[C@@H](O[C@H]3O[C@H](CO)[C@@H](O)[C@H](N)[C@H]3O)[C@H](N)C[C@@H]2N)[C@@H](O)[C@H](O)[C@H]1O` [KANAMYCIN A]: 768 µg/mL (≈ 1590 µM), 12 µg/mL (≈ 24.8 µM) and 256 µg/mL (≈ 528 µM).
Taken in the same sequence, the figures for `NC[C@H]1O[C@H](O[C@H]2[C@H](O)[C@@H](O)[C@H](N)C[C@@H]2N)[C@H](N)[C@@H](O)[C@@H]1O` [NEAMINE] were 1540 µg/mL (≈ 4760 µM), 96 µg/mL (≈ 298 µM) and 512 µg/mL (≈ 1590 µM).
As to `NC[C@H]1O[C@H](O[C@H]2[C@H](O[C@@H]3O[C@H](CO)[C@@H](O)[C@H]3O)[C@@H](O)[C@H](N)C[C@@H]2N)[C@H](N)[C@@H](O)[C@@H]1O` [RIBOSTAMYCIN], the MIC came out at 768 µg/mL (≈ 1690 µM) with Escherichia coli [1], 12 µg/mL (≈ 26.4 µM) against Escherichia coli [2] and 384 µg/mL (≈ 845 µM) against Pseudomonas aeruginosa.
Taken in the same sequence, the figures for `NC[C@H]1O[C@H](O[C@H]2[C@H](O)[C@@H](O[C@H]3O[C@H](CO)[C@@H](O)[C@H](N)[C@H]3O)[C@H](N)C[C@@H]2N)[C@H](N)C[C@@H]1O` [TOBRAMYCIN] were 6 µg/mL (≈ 12.8 µM), 6 µg/mL (≈ 12.8 µM) and 1 µg/mL (≈ 2.14 µM).

(Values after ChEMBL document CHEMBL1142160, “Overexpression and initial characterization of the chromosomal aminoglycoside 3'-O-phosphotransferase APH(3')-IIb from Pseudomonas aeruginosa” (2007).)
